Assay results as given in patent US20010006697A1, “Composition and method for producing low cholesterol eggs” (priority 1997, published 2001).
Values joined by “and” are separate entries in the source; they are usually repeats but may differ in a detail not shown here. Equal entries are not always repeated. Where two headings read alike, the source gives them in different places. Marks after values point to notes of the source that are not given here.

How the values were obtained:
[1] = tested on: plasma VLDL particles; settings: day 35
[2] = tested on: laying hens; settings: 0.03% of diet; day 35, fasted 15 hours
[3] = tested on: laying hens; test: Yolk cholesterol contents of eggs from statin-treated laying hens; format: in vivo, White Leghorn hens
Method: Agric. […] Hens were treated as described in Example 1. […] The eggs were hard-cooked, and the yolks were separated, weighed, and crumbled. […] Agric. […] Egg homogenate filtrates were analyzed for cholesterol as described in Rudel, L. L. and Morris, M. D., J. Lipid Res. 14:364-366 (1973).

[4] = tested on: laying hens; test: Egg production, egg weights and yolk weights of statin-treated laying hens; format: in vivo, White Leghorn hens
Method: Hens were treated as described in Example 1. Egg yolk was weighed as outlined in Example 2.

[5] = tested on: laying hens; test: Liver cholesterol content; settings: day 35
[6] = tested on: plasma VLDL particles; settings: day 35; remark: listed apart in the source
[7] = 0.06% of diet, week 5 (maximal reduction for simvastatin, lovastatin)
[8] = 0.03% of diet, Overall (weeks 1-5)
[9] = 0.06% of diet, Overall (weeks 1-5)

**Q.** What does the source list for `CCC(C)(C)C(=O)O[C@H]1C[C@@H](C)C=C2C=C[C@H](C)[C@H](CC[C@@H]3C[C@@H](O)CC(=O)O3)[C@H]21` [Simvastatin]?
**A.** Plasma VLDL particle Diameter nm ([1]; 0.03% of diet): 35.2 ± 0.1^a,b nm; Plasma VLDL particle Diameter nm ([1]; 0.06% of diet): 35.3 ± 0.1^a,b nm; change of plasma total cholesterol concentration vs control [2]: −36%; Yolk cholesterol content, mg cholesterol/g yolk ([3]; 0.03% of diet, Week 0): 10.8 ± 0.2^a mg cholesterol/g yolk; Yolk cholesterol content, mg cholesterol/yolk ([3]; 0.03% of diet, Week 0): 189.7 ± 6.1^a mg cholesterol/yolk; Yolk cholesterol content, mg cholesterol/g yolk ([3]; 0.03% of diet, Week 1): 11.2 ± 0.2^a,b mg cholesterol/g yolk; Yolk cholesterol content, mg cholesterol/yolk ([3]; 0.03% of diet, Week 1): 192.9 ± 5.3^a mg cholesterol/yolk; Yolk cholesterol content, mg cholesterol/g yolk ([3]; 0.03% of diet, Week 2): 10.3 ± 0.2^c,d mg cholesterol/g yolk; Yolk cholesterol content, mg cholesterol/g yolk ([3]; 0.03% of diet, Week 3): 10.0 ± 0.1^c,d mg cholesterol/g yolk; Yolk cholesterol content, mg cholesterol/yolk ([3]; 0.03% of diet, Week 3): 166.2 ± 2.7^b mg cholesterol/yolk; Yolk cholesterol content, mg cholesterol/g yolk ([3]; 0.03% of diet, Week 4): 10.3 ± 0.2^b,c mg cholesterol/g yolk; Yolk cholesterol content, mg cholesterol/g yolk ([3]; 0.03% of diet, Week 5): 10.1 ± 0.1^b mg cholesterol/g yolk; Yolk cholesterol content, mg cholesterol/yolk ([3]; 0.03% of diet, Week 5): 172.1 ± 2.9^b,c mg cholesterol/yolk; Yolk cholesterol content, mg cholesterol/g yolk ([3]; 0.06% of diet, Week 0): 11.0 ± 0.3^a mg cholesterol/g yolk; Yolk cholesterol content, mg cholesterol/yolk ([3]; 0.06% of diet, Week 0): 191.1 ± 7.9^a mg cholesterol/yolk; Yolk cholesterol content, mg cholesterol/g yolk ([3]; 0.06% of diet, Week 1): 10.7 ± 0.2^b mg cholesterol/g yolk; Yolk cholesterol content, mg cholesterol/yolk ([3]; 0.06% of diet, Week 1): 188.7 ± 9.1^a,b mg cholesterol/yolk; Yolk cholesterol content, mg cholesterol/g yolk ([3]; 0.06% of diet, Week 2): 10.0 ± 0.1^d mg cholesterol/g yolk; Yolk cholesterol content, mg cholesterol/yolk ([3]; 0.06% of diet, Week 2): 170.8 ± 3.0^b mg cholesterol/yolk; Yolk cholesterol content, mg cholesterol/g yolk ([3]; 0.06% of diet, Week 3): 9.8 ± 0.1^d mg cholesterol/g yolk; Yolk cholesterol content, mg cholesterol/yolk ([3]; 0.06% of diet, Week 3): 166.0 ± 4.6^b mg cholesterol/yolk; Yolk cholesterol content, mg cholesterol/g yolk ([3]; 0.06% of diet, Week 4): 9.9 ± 0.3^c mg cholesterol/g yolk; Yolk cholesterol content, mg cholesterol/yolk ([3]; 0.06% of diet, Week 4): 170.4 ± 7.0^b mg cholesterol/yolk; Yolk cholesterol content, mg cholesterol/g yolk ([3]; 0.06% of diet, Week 5): 9.3 mg cholesterol/g yolk and 9.3 ± 0.1^c mg cholesterol/g yolk; Yolk cholesterol content, mg cholesterol/yolk ([3]; 0.06% of diet, Week 5): 158.0 mg cholesterol/yolk and 158.0 ± 2.7^c,d mg cholesterol/yolk; yolk cholesterol reduction from control on a per yolk (egg) basis [3, 7]: 22%; yolk cholesterol reduction from control per g of yolk (mg/g basis) [3, 7]: 20%; Egg weight, g [4, 8]: 63.3 ± 1.4^a,b (141) g; Hen-day egg production, % [4, 8]: 80.6 ± 2.3^a,b (141) %; Egg weight, g ([4]; 0.03% of diet, Week 1): 63.8 ± 1.0^a g; Hen-day egg production, % ([4]; 0.03% of diet, Week 1): 80.0 ± 2.5^d %; Egg weight, g ([4]; 0.03% of diet, Week 2): 63.9 ± 0.9^a,b g; Hen-day egg production, % ([4]; 0.03% of diet, Week 2): 85.7 ± 1.5^a,b %; Egg weight, g ([4]; 0.03% of diet, Week 3): 62.5 ± 0.7^b,c g; Hen-day egg production, % ([4]; 0.03% of diet, Week 3): 80.0 ± 1.2^b %; Egg weight, g ([4]; 0.03% of diet, Week 4): 62.8 ± 0.7^b,c g; Hen-day egg production, % ([4]; 0.03% of diet, Week 4): 80.0 ± 1.2^b,c %; Egg weight, g ([4]; 0.03% of diet, Week 5): 62.9 ± 0.7^a,b g; Hen-day egg production, % ([4]; 0.03% of diet, Week 5): 80.0 ± 1.2^b,c %; Egg weight, g [4, 9]: 62.0 ± 1.9^a,b (144) g; Hen-day egg production, % [4, 9]: 82.3 ± 1.9^a,b (144) %; Egg weight, g ([4]; 0.06% of diet, Week 1): 63.8 ± 1.0^a g; Hen-day egg production, % ([4]; 0.06% of diet, Week 1): 85.7 ± 1.5^b,c %; Egg weight, g ([4]; 0.06% of diet, Week 2): 62.0 ± 1.0^b,c g; Hen-day egg production, % ([4]; 0.06% of diet, Week 2): 82.9 ± 1.0^b %; Egg weight, g ([4]; 0.06% of diet, Week 3): 61.0 ± 1.0^c g; Hen-day egg production, % ([4]; 0.06% of diet, Week 3): 77.1 ± 1.2^b %; Egg weight, g ([4]; 0.06% of diet, Week 4): 62.2 ± 1.0^c,d g; Hen-day egg production, % ([4]; 0.06% of diet, Week 4): 82.9 ± 1.0^b %; Egg weight, g ([4]; 0.06% of diet, Week 5): 60.5 ± 0.8^b g; Hen-day egg production, % ([4]; 0.06% of diet, Week 5): 88.6 ± 1.0^a %; Liver Cholesterol mg/g liver ([5]; 0.03% of diet): 3.1 ± 0.10^b mg/g liver; Liver Cholesterol mg/liver ([5]; 0.03% of diet): 86.8 ± 2.9^a mg/liver; Liver Cholesterol mg/g liver ([5]; 0.06% of diet): 2.9 ± 0.04^b,c mg/g liver; Liver Cholesterol mg/liver ([5]; 0.06% of diet): 82.6 ± 1.9^a mg/liver; Plasma VLDL composition: EC (esterified cholesterol) ([6]; 0.03% of diet): 0.06 ± 0.02^a,b %; Plasma VLDL composition: PC (phosphatidylcholine) ([6]; 0.03% of diet): 12.15 ± 0.58^b %; Plasma VLDL composition: PE (phosphatidylethanolamine) ([6]; 0.03% of diet): 3.96 ± 0.17^a %; Plasma VLDL composition: Protein ([6]; 0.03% of diet): 17.99 ± 1.48^a %; Plasma VLDL composition: SM (sphingomyelin) ([6]; 0.03% of diet): 1.77 ± 1.24^a %; Plasma VLDL composition: TG (triglyceride) ([6]; 0.03% of diet): 61.23 ± 2.98^a %; Plasma VLDL composition: UC (unesterified cholesterol) ([6]; 0.03% of diet): 2.84 ± 0.20^a %; Plasma VLDL composition: EC (esterified cholesterol) ([6]; 0.06% of diet): 0.08 ± 0.04^a,b %; Plasma VLDL composition: PC (phosphatidylcholine) ([6]; 0.06% of diet): 13.85 ± 0.61^a,b %; Plasma VLDL composition: PE (phosphatidylethanolamine) ([6]; 0.06% of diet): 3.65 ± 0.51^a %; Plasma VLDL composition: Protein ([6]; 0.06% of diet): 17.06 ± 0.84^a %; Plasma VLDL composition: SM (sphingomyelin) ([6]; 0.06% of diet): 0.36 ± 0.23^a %; Plasma VLDL composition: TG (triglyceride) ([6]; 0.06% of diet): 62.03 ± 1.53^a %; Plasma VLDL composition: UC (unesterified cholesterol) ([6]; 0.06% of diet): 2.97 ± 0.13^a %
